pIC50: −log10 of the molar value.
Columns and labels:
[1] = test system: V-src kinase; assay: V-src kinase assay; type: biochemical; details: at 50 μM
How it was run: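 Baculovirus-expressed v-src or c-src, immunopurified on antibody-coated latex beads, phosphorylated poly GluTyr with 5 μM ATP including [32P]-ATP in Tris pH 7.5/MgCl2. Reaction ran 10 min at room temperature, TCA/pyrophosphate quench, then filtered. Incorporated label counted by liquid scintillation and compared with solvent control.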

[2] = target: T1, C-src kinase (Homo sapiens, UniProt P12931); assay: C-src kinase assay; type: biochemical; details: read-out: Inhibition of Protein Tyrosine Kinases, C-src, IC50
T1 construct: made in house; host or cells: baculovirus-infected insect cells
T1 sequence (P12931 whole entry): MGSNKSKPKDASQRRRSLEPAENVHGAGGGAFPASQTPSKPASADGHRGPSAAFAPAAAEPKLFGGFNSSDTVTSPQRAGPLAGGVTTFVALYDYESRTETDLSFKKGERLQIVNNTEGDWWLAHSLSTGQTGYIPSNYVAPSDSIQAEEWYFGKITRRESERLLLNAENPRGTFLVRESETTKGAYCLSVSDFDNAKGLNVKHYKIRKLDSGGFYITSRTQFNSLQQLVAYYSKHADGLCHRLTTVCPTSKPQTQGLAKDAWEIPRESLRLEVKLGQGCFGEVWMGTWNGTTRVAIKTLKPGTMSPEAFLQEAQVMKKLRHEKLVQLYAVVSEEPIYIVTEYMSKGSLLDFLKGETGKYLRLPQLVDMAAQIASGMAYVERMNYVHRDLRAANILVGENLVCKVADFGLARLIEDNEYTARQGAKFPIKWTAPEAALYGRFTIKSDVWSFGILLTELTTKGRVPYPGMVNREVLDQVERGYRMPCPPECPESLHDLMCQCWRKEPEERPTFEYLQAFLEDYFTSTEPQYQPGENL
How it was run: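 Baculovirus-expressed c-src immunopurified on antibody-coated latex beads, assayed in 40 mM Tris pH 7.5, 5 mM MgCl2 with poly GluTyr substrate and 5 μM ATP plus 32P-ATP. Reaction 10 min at room temperature, TCA-quenched, filtered; incorporated label counted by scintillation.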

## Cc1ccccc1-c1cc2cnc(N)nc2nc1N [Example 90, 6-o-Tolyl-pyrido[2,3-d]pyrimidine-2,7-diamine]
[1]
  Inhibition of Protein Tyrosine Kinases, V-src, % Inhibition: 16.8%
[2]
  pIC50: 5.79

— patent publication US5733913A, “6-Aryl pyrido[2,3-d] pyrimidines and naphthyridines for inhibiting protein tyrosine kinase mediated cellular proliferation” (priority 1995, dated 1998)
